From patent US20100330200A1, “COMBINATION OF A RETINOID AND A PLATINUM ANTICANCER AGENT” (SIGMA-TAU INDUSTRIE FARMACEUTICHE RIUNITE S.P.A., priority 2006, published 2010)
Values joined by “and” are separate entries in the source; they are usually repeats but may differ in a detail not shown here. Identical values can stand only once. Like-named read-outs stand apart in the source and are kept apart here.

Key:
[1] = test system: human ovarian carcinoma xenografts; assay: Panel of human ovarian carcinoma xenografts, statements over several tumors
Source text: (§1) Drug treatment started at different tumor sizes.
(§2) Cisplatin was delivered intravenously every seventh day for three times (q7d×3).

1A9PTX22 = settings: for LCK (gross log10 cell kill) / TVI % Obs.: 1A9PTX22 s.c.
Source text: as §1, §2
(§3) For statistical comparison of tumor volumes in treated vs. control mice the Student's t test (two-sided) was used.

HOC18 ovarian carcinoma = test system: HOC18 ovarian carcinoma
Source text: as §1, §2, §3

A2780/DDP = settings: for LCK (gross log10 cell kill) / TVI % Obs.: A2780/DDP s.c.
Source text: as §1, §2, §3

A2780 ovarian carcinoma = settings: for LCK (gross log10 cell kill) / TVI % Obs.: A2780 s.c.
Source text: as §1, §2, §3

[2] = test system: MDA-MB231 bone metastases; settings: for Incidence of ostelytic lesions (%) / Incidence of ostelytic lesions (mice/total) / Osteolytic area mm^2 ± SD / Osteolytic area square pixel ± SD: 29 days after tumor implantation, cisplatin 3.1 mg/kg iv q7dx3; for Incidence of ostelytic lesions (%) / Incidence of ostelytic lesions (mice/total) / Osteolytic area mm^2 ± SD / Osteolytic area square pixel ± SD / frequency of osteolysis in tibias compared with the control group: ST1926 25 mg/kg po qdx2/wx3w; for frequency of osteolysis in tibias compared with the control group: radiographs 29 days from injection, cisplatin 3.1 iv q7dx3
Procedure: A human breast cancer cell line, MDA-MB231 was cultured in DMEM supplemented with 10% FCS and 1% penicillin-streptomycin solution in a humidified atmosphere of 5% CO2 in air. Cultured used for intratibial injection were at subconfluency. Cells (1×10^5) were suspended in 0.1 ml of PBS and injected into the tibia of female BALB/c-nu/nu mice with the use of a 27-gauge needle under the anesthesia ip of ketamine and xylazine chloride.
Animals were housed under a light-dark cycle, keeping temperature and humidity constant. Parameters of the animal rooms were assessed as follows: 22±2° C. temperature, 55±10% relative humidity, about 15-20 filtered air changes/hour and 12 hour circadian cycle of artificial light (7 a.m., 7 p.m.). At request, the environmental conditions were monitored and the data are retained in Animal Housing Archives. Drinking water was supplied ad libitum. Each mouse was offered daily a complete pellet diet (GLP 4RF21, Mucedola) throughout the study. The analytical certificates of animal food and water are retained at Sigma-Tau premises. All animals were weighed before starting the experiment and were subdivided into the different dosage groups. Each cage was identified by a paper tag indicating: cage number, group, date of tumor injection, starting date of treatment, name of the test item, dose and route of administration, date of sacrifice.
Incidence of osteolytic lesions and ostelytic area were evaluated 29 days after tumor implantation.

[3] = test system: FaDu human squamous pharynx carcinoma; assay: FaDu squamous pharynx carcinoma s.c. xenograft; type: in vivo, mouse (human xenograft); settings: ST1926 25 mg/kg oral qdx2/wx3w, carboplatin 40 mg/kg ip q7dx3, combination: carboplatin 1 h before ST1926
Procedure: The FaDu human squamous pharynx carcinoma cells (3×10^6 tumor cells) were injected sc in the right flank of CD1 nude female mice.

[4] = test system: IGROV-1 ovarian carcinoma; settings: in vivo
[5] = test system: IGROV-1 ovarian carcinoma; assay: s.c. growing IGROV-1 tumor, ST1926 doses and schedules
[6] = test system: IGROV-1 ovarian carcinoma; assay: i.p. growing IGROV-1 tumor, locoregional treatment, survival; type: in vivo
Procedure: The IGROV-1 ovarian carcinoma line was maintained by serial intraperitoneal passages in healthy mice. Tumor grows as ascites and small solid masses. IGROV-1 ascitic cells were collected and prepared as previously described [Pratesi G., Tortoreto M., Zunino F., Reg. Cancer Treat., 1990; 3:40-43] and 2.5×10^6 cells/mouse (in 0.2 ml of saline) were injected intraperitoneally. Mice developed hemorrhagic and diffuse carcinomatosis and eventually died by 20 to 35 days. Animals were inspected daily and weighed three times a week. The median day of death (median survival time: MST) was considered as the experimental end point.
Experimental groups consisted of seven mice.
The compound was delivered intraperitoneally at a dose of 10 mg/kg, daily for 5 days a week for 4 weeks (qd×5/w×4w), starting the day after cell injection. Drug activity was assessed as increase in life span (ILS) %, i.e. the percentage increase of MST in treated (T) over control (C) mice (T/C×100−100). Mice alive at the end of experiment (day 88) without disease were considered “long term survivors” (LTS).
For statistical comparison, curves reporting the percentage of surviving animals over time were estimated by the Kaplan-Meier product limit method and compared with the log-rank test. The test was two-sided.

in vivo = settings: female, athymic Swiss nude, mouse, po
[7] = HOC18 s.c., cisplatin 3.1 mg/kg iv q7dx3
[8] = HOC18 s.c., cisplatin 4.7 mg/kg iv q7dx3
[9] = cisplatin 3.1 mg/kg iv q7dx3, 1st day 2
[10] = ST1926 30 mg/kg oral qdx2/wx3w, 1st day 34
[11] = HOC18 s.c., ST1926 30 mg/kg oral qdx2/wx3w, 1st day 27
[12] = ST1926 45 mg/kg oral qdx2/wx3w, 1st day 2
[13] = ST1926 30 mg/kg oral qdx2/wx3w, 1st day 2
[14] = i.p. growing tumor, 10 mg/kg i.p. qdx5/wx4w

N.N.[Cl][Pt][Cl] [Cisplatin, cisplatin]
body weight loss ([1]; optimal doses of cisplatin): around 20%
LCK (gross log10 cell kill) (1A9PTX22; cisplatin 3.1 mg/kg iv q7dx3): 0.3
TVI % Obs. (1A9PTX22; cisplatin 3.1 mg/kg iv q7dx3): 38%
LCK (gross log10 cell kill) (1A9PTX22; cisplatin 4.7 mg/kg iv q7dx3): 0.6
TVI % Obs. (1A9PTX22; cisplatin 4.7 mg/kg iv q7dx3): 57%
LCK (gross log10 cell kill) (HOC18 ovarian carcinoma; [7]): 1.0
TVI % Obs. (HOC18 ovarian carcinoma; [7]): 41%
LCK (gross log10 cell kill) (HOC18 ovarian carcinoma; [8]): >>1.7
TVI % Obs. (HOC18 ovarian carcinoma; [8]): 81%
NED (not evidence of disease at the end of the experiment) (HOC18 ovarian carcinoma; HOC18 s.c., cisplatin 4.7 mg/kg iv q7dx3, tumors/total): 1/10
complete responses (no evidence of disease at the experiment end), tumors (HOC18 ovarian carcinoma; HOC18 tumor, dose groups taken together): 1/10
LCK (gross log10 cell kill) (A2780/DDP; cisplatin 4.7 mg/kg iv q7dx3): 0
TVI % Obs. (A2780/DDP; cisplatin 4.7 mg/kg iv q7dx3): 15%
LCK (gross log10 cell kill) (A2780 ovarian carcinoma; [9]): 0.4
TVI % Obs. (A2780 ovarian carcinoma; [9]): 40%
LCK (gross log10 cell kill) (A2780 ovarian carcinoma; cisplatin 4.7 mg/kg iv q7dx3): 1.2
TVI % Obs. (A2780 ovarian carcinoma; cisplatin 4.7 mg/kg iv q7dx3): 80%
Incidence of ostelytic lesions (%) [2]: 71%
Incidence of ostelytic lesions (mice/total) [2]: 5/7
Osteolytic area mm^2 ± SD [2]: 4.6 ± 1.9 mm^2
Osteolytic area square pixel ± SD [2]: 458 ± 190 square pixel
frequency of osteolysis in tibias compared with the control group [2]: no significant differences

O=C(O)/C=C/c1ccc(-c2ccc(O)c(C34CC5CC(CC(C5)C3)C4)c2)cc1 [ST1926, E-4-(3-(1-adamantyl)-4-hydroxyphenyl)cinnamic acid]
TVI [3]: 35%
TV inhibition, all the tumors investigated ([1]; ST1926 30 or 45 mg/kg per os qdx2/w for 2 or 3 weeks): ≤ 50%
BWL (body weight loss %, highest) ([4]; 2 mg/kg): 12%
BWL (body weight loss %, highest) ([4]; 20 mg/kg): 25%
LCK (gross log10 cell kill) (1A9PTX22; [10]): 0.3
TVI % Obs. (1A9PTX22; [10]): 35%
BWL % (highest) (1A9PTX22; in vivo, 30 mg/kg): 10%
LCK (gross log10 cell kill) (HOC18 ovarian carcinoma; [11]): 0.4
TVI % Obs. (HOC18 ovarian carcinoma; [11]): 37%
BWL % (highest) (HOC18 ovarian carcinoma; in vivo, 30 mg/kg): 3%
LCK (gross log10 cell kill) (A2780/DDP; [12]): 0.8
TVI % Obs. (A2780/DDP; [12]): 41%
BWL % (highest) (A2780/DDP; in vivo, 45 mg/kg): 13%
LCK (gross log10 cell kill) (A2780 ovarian carcinoma; [13]): 0.4
TVI % Obs. (A2780 ovarian carcinoma; [13]): 40%
BWL % (highest) (A2780 ovarian carcinoma; in vivo, 30 mg/kg): 5%
LCK ([5]; 15 mg/kg oral qdx2/wx2w): 0.1
TVI % ([5]; 15 mg/kg oral qdx2/wx2w): 39%
LCK ([5]; 15 mg/kg oral qdx5/wx3w): 0.4
TVI % ([5]; 15 mg/kg oral qdx5/wx3w): 52%
LCK ([5]; 5 × 2 mg/kg oral qdx5/wx4w): 0.3
TVI % ([5]; 5 × 2 mg/kg oral qdx5/wx4w): 35%
survival time over control mice ([6]; i.p. growing IGROV-1, 10 mg/kg qdx5/wx4 weeks): significantly (P<0.01) increased
ILS (increase in life span % in treated over control mice) [6, 14]: 91%
Tox (No. of dead mice/total no. of mice) [6, 14]: 0/7
LTS (long term survivors at the end of experiments, day 88) ([6]; i.p. growing tumor, 10 mg/kg i.p. qdx5/wx4w, 10 mg/kg): 2 out of 7 and 2/7
Incidence of ostelytic lesions (%) [2]: 63%
Incidence of ostelytic lesions (mice/total) [2]: 5/8
Osteolytic area mm^2 ± SD [2]: 3.1 ± 1.0 mm^2
Osteolytic area square pixel ± SD [2]: 310 ± 106 square pixel
tolerability in tumor-bearing mice ([2]; in vivo, po, 25 mg/kg): well-tolerated
frequency of osteolysis in tibias compared with the control group [2]: no significant differences
MTD (in vivo): 15 mg/kg

N.N.O=C([O-])C1(C(=O)[O-])CCC1.[Pt+2] [carboplatin, reference compound]
TVI [3]: 52%
